# Test results: the kinase profiling compilation of Christmann-Franck et al. (2016)
# Experiments:
# Assay in all cases: KINOMEscan competition binding
# Details in all cases: compound 10.0 µM
# ROS1 (human) = ROS1 (human) (UniProt P08922)
# MKNK2 (human) = MKNK2 (human) (UniProt Q9HBH9)
# NEK2 (human) = NEK2 (human) (UniProt P51955)
# PIM1 (human) = PIM1 (human) (UniProt P11309)
# NTRK1 (human) = NTRK1 (human) (UniProt P04629)
# RIPK2 (human) = RIPK2 (human) (UniProt O43353)
# ROCK2 (human) = ROCK2 (human) (UniProt O75116)
# MARK3 (human) = MARK3 (human) (UniProt P27448)
# AURKB (human) = AURKB (human) (UniProt Q96GD4)
# PIK3CB (human) = PIK3CB (human) (UniProt P42338)
# CSK (human) = CSK (human) (UniProt P41240)
# Sequence of CSK (human) (P41240 whole entry, looked up): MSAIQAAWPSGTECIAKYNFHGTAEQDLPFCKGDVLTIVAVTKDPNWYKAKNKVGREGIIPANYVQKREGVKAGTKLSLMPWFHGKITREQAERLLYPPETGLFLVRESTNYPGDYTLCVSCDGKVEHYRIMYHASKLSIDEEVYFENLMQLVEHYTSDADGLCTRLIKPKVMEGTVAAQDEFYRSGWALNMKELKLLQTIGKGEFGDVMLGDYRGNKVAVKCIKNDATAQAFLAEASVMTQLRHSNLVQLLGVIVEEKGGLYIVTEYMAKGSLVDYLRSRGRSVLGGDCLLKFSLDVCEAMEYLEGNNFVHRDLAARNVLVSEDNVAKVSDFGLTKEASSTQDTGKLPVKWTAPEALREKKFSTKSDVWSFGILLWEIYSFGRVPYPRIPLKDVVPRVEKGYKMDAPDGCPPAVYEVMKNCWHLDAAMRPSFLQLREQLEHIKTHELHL
# SIK1 (human) = SIK1 (human) (UniProt P57059)
# Sequence of SIK1 (human) (P57059 whole entry, looked up): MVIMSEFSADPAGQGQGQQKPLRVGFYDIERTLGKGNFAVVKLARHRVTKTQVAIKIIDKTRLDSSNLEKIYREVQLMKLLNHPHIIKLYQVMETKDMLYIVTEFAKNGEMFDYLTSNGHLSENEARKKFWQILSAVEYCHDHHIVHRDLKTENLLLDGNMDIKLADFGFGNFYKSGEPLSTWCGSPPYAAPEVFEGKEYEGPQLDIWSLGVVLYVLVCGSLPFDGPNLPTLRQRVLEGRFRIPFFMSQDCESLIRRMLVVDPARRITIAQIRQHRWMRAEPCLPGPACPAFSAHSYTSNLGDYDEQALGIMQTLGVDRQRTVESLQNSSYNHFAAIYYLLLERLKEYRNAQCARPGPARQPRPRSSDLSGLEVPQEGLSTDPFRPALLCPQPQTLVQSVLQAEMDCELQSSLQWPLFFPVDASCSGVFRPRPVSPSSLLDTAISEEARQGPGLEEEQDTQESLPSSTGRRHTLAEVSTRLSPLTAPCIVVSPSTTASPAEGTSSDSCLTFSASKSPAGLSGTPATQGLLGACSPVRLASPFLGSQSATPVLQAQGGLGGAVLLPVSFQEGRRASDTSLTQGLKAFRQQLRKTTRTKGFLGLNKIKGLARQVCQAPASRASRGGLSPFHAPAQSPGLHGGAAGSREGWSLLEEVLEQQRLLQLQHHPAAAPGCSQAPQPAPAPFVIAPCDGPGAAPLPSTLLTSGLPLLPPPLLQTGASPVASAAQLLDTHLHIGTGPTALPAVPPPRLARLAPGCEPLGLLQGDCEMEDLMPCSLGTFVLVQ
# PRKCD (human) = PRKCD (human) (UniProt Q05655)
# DCLK1 (human) = DCLK1 (human) (UniProt O15075)
# CDK19 (human) = CDK19 (human) (UniProt Q9BWU1)
# FLT3 (human) = FLT3 (human) (UniProt P36888)
# TTK (human) = TTK (human) (UniProt P33981)
# INSRR (human) = INSRR (human) (UniProt P14616)
# MUSK (human) = MUSK (human) (UniProt O15146)
# MAP2K3 (human) = MAP2K3 (human) (UniProt P46734)
# PIM2 (human) = PIM2 (human) (UniProt Q9P1W9)
# Sequence of PIM2 (human) (Q9P1W9 whole entry, looked up): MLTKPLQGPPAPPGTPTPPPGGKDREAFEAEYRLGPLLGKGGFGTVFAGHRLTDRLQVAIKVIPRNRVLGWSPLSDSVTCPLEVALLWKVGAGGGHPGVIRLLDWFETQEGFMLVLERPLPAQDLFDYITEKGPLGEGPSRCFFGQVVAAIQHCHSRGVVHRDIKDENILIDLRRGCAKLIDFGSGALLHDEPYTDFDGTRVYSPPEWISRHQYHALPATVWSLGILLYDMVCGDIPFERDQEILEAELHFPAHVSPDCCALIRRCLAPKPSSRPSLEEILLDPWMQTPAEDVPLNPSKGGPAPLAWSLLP
# MAPK1 (human) = MAPK1 (human) (UniProt P28482)
# Sequence of MAPK1 (human) (P28482 whole entry, looked up): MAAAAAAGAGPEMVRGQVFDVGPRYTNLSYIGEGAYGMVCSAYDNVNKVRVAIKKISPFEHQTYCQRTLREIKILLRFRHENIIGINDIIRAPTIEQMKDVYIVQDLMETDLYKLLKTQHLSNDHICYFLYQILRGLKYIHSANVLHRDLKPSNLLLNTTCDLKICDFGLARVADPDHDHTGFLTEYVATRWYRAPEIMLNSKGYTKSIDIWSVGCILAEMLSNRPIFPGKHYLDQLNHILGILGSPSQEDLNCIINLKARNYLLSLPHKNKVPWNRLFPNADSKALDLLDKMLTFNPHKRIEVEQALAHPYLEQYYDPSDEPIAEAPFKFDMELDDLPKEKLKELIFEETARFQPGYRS
# MYLK2 (human) = MYLK2 (human) (UniProt Q9H1R3)
# FRK (human) = FRK (human) (UniProt P42685)
# PAK6 (human) = PAK6 (human) (UniProt Q9NQU5)
# AKT2 (human) = AKT2 (human) (UniProt P31751)
# SRPK2 (human) = SRPK2 (human) (UniProt P78362)
# MAPKAPK2 (human) = MAPKAPK2 (human) (UniProt P49137)
# Sequence of MAPKAPK2 (human) (P49137 whole entry, looked up): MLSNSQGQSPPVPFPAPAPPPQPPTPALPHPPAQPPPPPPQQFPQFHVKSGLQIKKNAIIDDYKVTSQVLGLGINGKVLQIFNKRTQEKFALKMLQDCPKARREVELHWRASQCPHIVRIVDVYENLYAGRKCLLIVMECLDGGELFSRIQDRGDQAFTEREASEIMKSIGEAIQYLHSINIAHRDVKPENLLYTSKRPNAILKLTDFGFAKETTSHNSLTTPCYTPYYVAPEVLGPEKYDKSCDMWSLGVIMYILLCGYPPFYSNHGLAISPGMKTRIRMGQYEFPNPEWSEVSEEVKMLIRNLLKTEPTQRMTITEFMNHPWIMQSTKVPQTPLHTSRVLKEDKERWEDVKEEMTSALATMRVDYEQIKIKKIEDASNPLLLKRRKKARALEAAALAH
# KDR (human) = KDR (human) (UniProt P35968)
# Sequence of KDR (human) (P35968 whole entry, looked up): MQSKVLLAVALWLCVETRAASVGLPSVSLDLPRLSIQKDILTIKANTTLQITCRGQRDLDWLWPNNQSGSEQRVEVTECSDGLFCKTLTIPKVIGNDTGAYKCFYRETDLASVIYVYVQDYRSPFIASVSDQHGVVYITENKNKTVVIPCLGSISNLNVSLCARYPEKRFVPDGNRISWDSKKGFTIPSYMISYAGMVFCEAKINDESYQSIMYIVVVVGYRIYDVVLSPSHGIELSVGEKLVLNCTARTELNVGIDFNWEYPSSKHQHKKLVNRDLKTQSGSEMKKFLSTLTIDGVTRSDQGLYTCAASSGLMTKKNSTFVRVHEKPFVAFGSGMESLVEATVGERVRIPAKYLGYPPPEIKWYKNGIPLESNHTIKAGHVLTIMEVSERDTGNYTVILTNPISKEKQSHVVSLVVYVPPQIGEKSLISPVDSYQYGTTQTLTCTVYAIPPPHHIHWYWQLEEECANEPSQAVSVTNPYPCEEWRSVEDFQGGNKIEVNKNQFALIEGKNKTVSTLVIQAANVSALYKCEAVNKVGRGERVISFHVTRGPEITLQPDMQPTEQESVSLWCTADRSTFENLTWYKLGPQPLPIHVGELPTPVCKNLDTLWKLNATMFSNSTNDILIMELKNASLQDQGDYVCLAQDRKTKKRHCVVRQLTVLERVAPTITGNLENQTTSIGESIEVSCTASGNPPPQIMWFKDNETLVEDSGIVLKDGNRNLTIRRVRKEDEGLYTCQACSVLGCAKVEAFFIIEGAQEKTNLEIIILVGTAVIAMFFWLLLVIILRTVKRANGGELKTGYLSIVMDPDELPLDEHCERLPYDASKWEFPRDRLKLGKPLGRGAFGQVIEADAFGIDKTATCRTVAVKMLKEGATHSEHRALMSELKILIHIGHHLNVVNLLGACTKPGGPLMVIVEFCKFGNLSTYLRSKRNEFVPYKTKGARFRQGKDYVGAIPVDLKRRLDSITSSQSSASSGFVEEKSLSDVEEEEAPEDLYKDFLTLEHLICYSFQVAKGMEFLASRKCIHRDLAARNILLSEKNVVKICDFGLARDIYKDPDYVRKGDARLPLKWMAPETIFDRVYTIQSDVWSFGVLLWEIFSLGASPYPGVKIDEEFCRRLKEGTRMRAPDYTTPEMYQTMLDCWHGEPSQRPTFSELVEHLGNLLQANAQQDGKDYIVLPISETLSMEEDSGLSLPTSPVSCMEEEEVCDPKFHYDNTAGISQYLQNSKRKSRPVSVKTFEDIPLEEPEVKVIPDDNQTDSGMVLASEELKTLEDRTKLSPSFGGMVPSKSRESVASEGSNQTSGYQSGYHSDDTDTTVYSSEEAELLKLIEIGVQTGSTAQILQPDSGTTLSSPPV
# ULK2 (human) = ULK2 (human) (UniProt Q8IYT8)
# PAK3 (human) = PAK3 (human) (UniProt O75914)
# IKBKB (human) = IKBKB (human) (UniProt O14920)
# MAPKAPK5 (human) = MAPKAPK5 (human) (UniProt Q8IW41)
# Sequence of MAPKAPK5 (human) (Q8IW41 whole entry, looked up): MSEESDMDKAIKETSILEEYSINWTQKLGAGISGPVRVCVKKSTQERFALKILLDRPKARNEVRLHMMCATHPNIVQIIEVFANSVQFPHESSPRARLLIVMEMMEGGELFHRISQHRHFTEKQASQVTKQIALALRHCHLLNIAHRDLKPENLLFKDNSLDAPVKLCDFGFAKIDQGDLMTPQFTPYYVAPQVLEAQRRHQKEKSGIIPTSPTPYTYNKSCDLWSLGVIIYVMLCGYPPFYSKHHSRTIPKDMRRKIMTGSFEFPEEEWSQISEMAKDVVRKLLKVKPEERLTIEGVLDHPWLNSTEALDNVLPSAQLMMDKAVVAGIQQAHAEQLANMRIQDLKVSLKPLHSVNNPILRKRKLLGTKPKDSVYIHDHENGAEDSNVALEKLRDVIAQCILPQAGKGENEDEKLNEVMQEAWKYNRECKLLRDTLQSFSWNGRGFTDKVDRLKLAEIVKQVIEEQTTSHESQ
# CAMK2G (human) = CAMK2G (human) (UniProt Q13555)
# GSK3B (human) = GSK3B (human) (UniProt P49841)
# Sequence of GSK3B (human) (P49841 whole entry, looked up): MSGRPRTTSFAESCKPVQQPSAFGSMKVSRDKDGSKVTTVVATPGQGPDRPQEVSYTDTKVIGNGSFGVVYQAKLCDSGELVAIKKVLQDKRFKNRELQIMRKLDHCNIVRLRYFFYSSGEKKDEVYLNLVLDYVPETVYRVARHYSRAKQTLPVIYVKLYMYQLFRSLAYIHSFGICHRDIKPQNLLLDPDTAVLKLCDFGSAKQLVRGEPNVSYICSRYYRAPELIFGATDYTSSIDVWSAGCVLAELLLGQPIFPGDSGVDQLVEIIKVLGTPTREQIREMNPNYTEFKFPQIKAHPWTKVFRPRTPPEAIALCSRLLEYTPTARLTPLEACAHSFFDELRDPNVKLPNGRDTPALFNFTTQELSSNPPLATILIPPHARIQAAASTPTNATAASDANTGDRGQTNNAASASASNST
# MAPK4 (human) = MAPK4 (human) (UniProt P31152)
# LTK (human) = LTK (human) (UniProt P29376)
# PRKD1 (human) = PRKD1 (human) (UniProt Q15139)
# BMPR2 (human) = BMPR2 (human) (UniProt Q13873)
# CSNK2A2 (human) = CSNK2A2 (human) (UniProt P19784)
# TAOK3 (human) = TAOK3 (human) (UniProt Q9H2K8)
# Sequence of NEK2 (human) (P51955 whole entry, looked up): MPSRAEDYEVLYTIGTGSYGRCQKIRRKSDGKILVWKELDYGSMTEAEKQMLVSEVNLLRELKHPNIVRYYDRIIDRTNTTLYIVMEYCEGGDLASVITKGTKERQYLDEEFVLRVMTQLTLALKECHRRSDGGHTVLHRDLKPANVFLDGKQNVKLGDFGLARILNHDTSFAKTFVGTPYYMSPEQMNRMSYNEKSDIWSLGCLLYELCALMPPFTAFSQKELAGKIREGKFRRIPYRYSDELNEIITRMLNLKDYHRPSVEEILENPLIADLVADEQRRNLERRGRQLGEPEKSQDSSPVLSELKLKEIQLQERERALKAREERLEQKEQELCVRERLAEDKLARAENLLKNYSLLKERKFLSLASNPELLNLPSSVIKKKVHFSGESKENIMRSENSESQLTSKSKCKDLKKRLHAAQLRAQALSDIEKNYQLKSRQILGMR
smiles,measurement,setting,value
CCC(=O)N1CCN(c2ccc(-n3c(=O)ccc4cnc5ccc(-c6cnc7ccccc7c6)cc5c43)cc2C(F)(F)F)CC1,"kinase still bound, per cent of control",ROS1 (human),71%
same,"kinase still bound, per cent of control",MKNK2 (human),54%
same,"kinase still bound, per cent of control",NEK2 (human),90%
same,"kinase still bound, per cent of control",PIM1 (human),80%
same,"kinase still bound, per cent of control",NTRK1 (human),64%
same,"kinase still bound, per cent of control",RIPK2 (human),44%
same,"kinase still bound, per cent of control",ROCK2 (human),50%
same,"kinase still bound, per cent of control",MARK3 (human),100%
same,"kinase still bound, per cent of control",AURKB (human),82%
same,"kinase still bound, per cent of control",PIK3CB (human),65%
same,"kinase still bound, per cent of control",CSK (human),71%
same,"kinase still bound, per cent of control",SIK1 (human),80%
same,"kinase still bound, per cent of control",PRKCD (human),82%
same,"kinase still bound, per cent of control",DCLK1 (human),100%
same,"kinase still bound, per cent of control",CDK19 (human),1.2%
same,"kinase still bound, per cent of control",FLT3 (human),16%
same,"kinase still bound, per cent of control",TTK (human),9.6%
same,"kinase still bound, per cent of control",INSRR (human),100%
same,"kinase still bound, per cent of control",MUSK (human),100%
same,"kinase still bound, per cent of control",MAP2K3 (human),80%
same,"kinase still bound, per cent of control",PIM2 (human),62%
same,"kinase still bound, per cent of control",MAPK1 (human),100%
same,"kinase still bound, per cent of control",MYLK2 (human),40%
same,"kinase still bound, per cent of control",FRK (human),60%
same,"kinase still bound, per cent of control",PAK6 (human),77%
same,"kinase still bound, per cent of control",AKT2 (human),100%
same,"kinase still bound, per cent of control",SRPK2 (human),100%
same,"kinase still bound, per cent of control",MAPKAPK2 (human),100%
same,"kinase still bound, per cent of control",KDR (human),65%
same,"kinase still bound, per cent of control",ULK2 (human),75%
same,"kinase still bound, per cent of control",PAK3 (human),100%
same,"kinase still bound, per cent of control",IKBKB (human),61%
same,"kinase still bound, per cent of control",MAPKAPK5 (human),100%
same,"kinase still bound, per cent of control",CAMK2G (human),79%
same,"kinase still bound, per cent of control",GSK3B (human),100%
same,"kinase still bound, per cent of control",MAPK4 (human),80%
same,"kinase still bound, per cent of control",LTK (human),77%
same,"kinase still bound, per cent of control",PRKD1 (human),99%
same,"kinase still bound, per cent of control",BMPR2 (human),59%
same,"kinase still bound, per cent of control",CSNK2A2 (human),11%
same,"kinase still bound, per cent of control",TAOK3 (human),76%
